Results: patent US20240180887A1, “USE OF PPAR(gamma) AGONISTS OR MPC INHIBITORS FOR TREATING PRIMARY, INNATE DISEASES OF THE CARDIAC MUSCLE (CARDIOMYOPATHIES)” (PREVENTAGE THERAPEUTICS GMBH, priority 2021, published 2024)
“Also recorded” adds a separate entry of the source.

Columns and labels:
HCM mice (αMHC^719/+) [1] = assay: Semi-quantitative myocardial fibrosis score on Masson's trichrome sections, stereoisomers of pioglitazone (experimental setup C); type: in vivo, mouse; details: αMHC^719/+ mice, 10 mg/kg/day orally, 6 weeks, vs untreated αMHC^719/+
Method: FIG. 13 Determination of myocardial fibrosis using histopathological sections of myocardium. The manifestation of myocardial fibrosis (blue-colored in the Masson's trichrome-stained histological sections) was determined semi-quantitatively by two blinded examiners in each case independently of one another. The scores assigned were 0 to 3:0: no fibrosis, 1: mild fibrosis; 2: moderate fibrosis, 3: severe fibrosis; 0.5: no to mild fibrosis, 1.5: mild to moderate fibrosis; 2.5: moderate to severe fibrosis, 3: severe fibrosis. The animals were genotyped in their 3rd postnatal week (as also described in accordance with experimental setup A). Between their 6th and 12th postnatal week, all 65 mice were orally administered a daily dose of 30 mg/kg cyclosporin A (CsA) which was added to their pellet diet to accelerate hypertrophic remodeling in the myocardium in the HCM mouse model^56. Between their 6th and 12th postnatal week, (a) 13 WT and 9 MHC^719/+ mice were in addition treated orally with the (R)-stereoisomer of a thiazolidinedione (pioglitazone) (10 mg/kg/day) or (b) 12 WT and 11 αMHC^719/+ mice were in addition treated orally with the (S)-stereoisomer (pioglitazone) (10 mg/kg/day). In their 12th postnatal week, they were subjected to in vivo transthoracic echocardiography. The animals were then euthanized for ex vivo examination (organ removal and histopathology) (see FIG. 11). Examination by echocardiography was done as follows—specifically: removal of the mice from the cage, weighing and visual assessment of the animals, performance of echocardiography according to standardized, published standard protocols in conscious animals after 30 minutes of observation^39,41,37,40. In order to quantify fibrosis, the removed hearts were fixed in 4% of paraformaldehyde, dehydrated, and placed in paraffin, as described above^37,42,43. 5-μm sections were stained with Masson's trichrome. Semi-quantification of myocardial fibrosis was done independently of one another by two blinded examiners. For this purpose, the percentage of cardiac muscle portions stained blue with Masson's trichrome in relation to the overall stained cardiac muscle was calculated. Perivascular and intramurine structures, the endocardium, and trabeculas were excluded in the calculation of the percentage of fibrosis. The classification was “no fibrosis,” “mild fibrosis,” “moderate fibrosis,” and “severe fibrosis.”

HCM mice (αMHC^719/+) [2] = assay: Echocardiography: maximum left ventricular wall thickness, stereoisomers of pioglitazone (experimental setup C); type: in vivo, mouse; details: αMHC^719/+ mice, 10 mg/kg/day orally, 6 weeks, vs untreated αMHC^719/+
From the text: This experimental protocol examined the action of the two stereoisomers of a thiazolidinedione (pioglitazone) ((S)- and (R)-stereoisomers) in the same hypertrophic cardiomyopathy mouse model as described for experimental setup A. The experimental setup is thus similar to the experimental setup according to A. The animals were genotyped in their 3rd postnatal week (as also described in accordance with experimental setup A). Between their 6th and 12th postnatal week, all 65 mice were orally administered a daily dose of 30 mg/kg cyclosporin A (CsA) which was added to their pellet diet to accelerate hypertrophic remodeling in the myocardium in the HCM mouse model^56. Between their 6th and 12th postnatal week, (a) 13 WT and 9 MHC^719/+ mice were in addition treated orally with the (R)-stereoisomer of a thiazolidinedione (pioglitazone) (10 mg/kg/day) or (b) 12 WT and 11 αMHC^719/+ mice were in addition treated orally with the (S)-stereoisomer (pioglitazone) (10 mg/kg/day). In their 12th postnatal week, they were subjected to in vivo transthoracic echocardiography. The animals were then euthanized for ex vivo examination (organ removal and histopathology) (see FIG. 11). As shown in experimental setup A, in vivo phenotyping of the left ventricular wall thickness and ventricular function was done by means of transthoracic echocardiography, as described above^40,41,39. Examination by echocardiography was done as follows—specifically: removal of the mice from the cage, weighing and visual assessment of the animals, performance of echocardiography according to standardized, published standard protocols in conscious animals after 30 minutes of observation^39,41,37,40. In order to quantify fibrosis, the removed hearts were fixed in 4% of paraformaldehyde, dehydrated, and placed in paraffin, as described above^37,42,43. […] Semi-quantification of myocardial fibrosis was done independently of one another by two blinded examiners. For this purpose, the percentage of cardiac muscle portions stained blue with Masson's trichrome in relation to the overall stained cardiac muscle was calculated. […]

[3] = test system: αMHC^719/+ HCM mouse model; assay: Preclinical αMHC^719/+ HCM mouse model, overall summary of results; type: in vivo; details: oral administration in the αMHC^719/+ HCM mouse model
Method: The examinations were carried out on an established HCM mouse model, in which an arginine-to-tryptophan mutation at position 719 of the heavy chain of the cardiac mouse alpha-myosin gene was effected by homologous recombination (referred to as αMHC^719/+)^38. Such genetically modified mice increasingly develop the typical pathognomonic disease characteristics of hypertrophic cardiomyopathy such as myocardial hypertrophy and fibrosis with increasing age. The phenotype of this genetically generated HCM mouse model thus simulates the phenotype of HCM patients affected^36,37,38. The manifestation of the disease can be accelerated by subcutaneous administration of the calcineurin inhibitor cyclosporin A (CsA)^9.
Between their 6th and 12th postnatal week, all mice were injected subcutaneously with cyclosporin A (CsA) to accelerate hypertrophic remodeling in the myocardium in the HCM mouse model^9. Half of the mice were treated with the PPARγ agonists rosiglitazone and pioglitazone from the group of thiazolidinediones between their 6th and 12th postnatal week. In their 12th postnatal week, they were subjected to in vivo transthoracic echocardiography. The animals were then euthanized for ex vivo examination (organ removal, histopathology, and determination of radical oxygen species, of mRNA and protein expression in the tissue) (see FIG. 10).D

PPARγ mRNA = assay: Relative expression of PPARγ mRNA in the left ventricular myocardium (RtPCR); type: in vivo, mouse; details: αMHC^719/+ mice, oral rosiglitazone, 6 weeks, compared to wild-type level
Method: FIG. 7 Relative expression of PPARγ mRNA in the left ventricular myocardium of untreated HCM mice and HCM mice (αMHC^719/+) treated with N-acetylcysteine (NAC) or rosiglitazone (Rosi) compared to wild-type mice (WT) after 6 weeks; ***: p<0.001.
RNA isolation was carried out by means of the peqGOLD Total RNA Kit (Peqlab) from the left ventricular myocardium according to the manufacturer's instructions. First-strand cDNA was synthesized from 500 ng of total RNA, which is reverse-transcribed (Reverse Transcription Kit, Invitrogen) with random hexamers (TIB Molbiol). RtPCR analysis is carried out with Perfecta SYBR Green fast Mix (VWR, Germany) in the QIAGEN Rotor-Gene Q (Corbett Rotor-Gene 6000). Quantification is done by means of […] calculation and randomization test^49,50.

[4] = (R)-Pio p=0.01, (S)-Pio p=0.916
[5] = (R)-Pio p<0.001, (S)-Pio p=0.072

Row | SMILES | development of myocardial fibrosis (semi-quantitative score 0 to 3) (HCM mice (αMHC^719/+) [1]; [4]) | development of myocardial fibrosis (semi-quantitative score 0 to 3) (HCM mice (αMHC^719/+) [1]; (R)-Pio p=0.01, (S)-Pio p=0.916, listed as S-stereoisomer of pioglitazone) | development of myocardial hypertrophy (maximum thickness of the wall of the left ventricle) (HCM mice (αMHC^719/+) [2]; [5]) | development of myocardial fibrosis (semi-quantitative score 0 to 3) (HCM mice (αMHC^719/+) [1]; (R)-Pio p=0.01, (S)-Pio p=0.916, listed as (R)-stereoisomer of a thiazolidinedione) | development of myocardial hypertrophy (maximum thickness of the wall of the left ventricle) (HCM mice (αMHC^719/+) [2]; (R)-Pio p<0.001, (S)-Pio p=0.072, listed as (R)-stereoisomer of a thiazolidinedione) | changes in biophysical properties in the heart muscle cell and onset of myocardial hypertrophy and fibrosis [3] | myocardial mRNA expression of PPARγ (PPARγ mRNA)
1 | CCc1ccc(CCOc2ccc(C[C@@H]3SC(=O)NC3=O)cc2)nc1 (single isomer, unassigned) [(S)-stereoisomer of pioglitazone] | not in a reduction of myocardial fibrosis | cannot be seen | tends to result in lessened hypertrophy; also recorded: less pronounced | – | – | – | –
2 | CCc1ccc(CCOc2ccc(C[C@H]3SC(=O)NC3=O)cc2)nc1 (single isomer, unassigned) [(R)-stereoisomer of pioglitazone] | significantly inhibited | – | significantly inhibited | significantly lessened | significantly lessened | – | –
3 | CN(CCOc1ccc(CC2SC(=O)NC2=O)cc1)c1ccccn1 (racemic) [rosiglitazone, (RS)-5-({4-[2-(methyl-2-pyridinylamino)ethoxy]phenyl}methyl)-2,4-thiazolidinedione] | – | – | – | – | – | largely prevents | increases the myocardial mRNA expression of PPARγ again almost completely to wild-type level
